Structures can show the parent of a compound that is named as a salt.

We go through two compounds from patent publication US12640054B2, “Computational in silico model for placental barrier” (CFD Research Corporation, priority 2022, dated 2026).

Data set [1] deals with in vitro placenta device (coculture of Bewo trophoblasts and HUVEC). Put plainly: Maternal-placental size exclusion (permeability index) in the in vitro placenta device. It counts as in vitro ADME, human. The settings on record: injected into the maternal vascular channel at 0.1 μL/min for 1 hour; FIG. 9B. As to the method:
Again, devices can be placed in the incubator.
In another example, one embodiment of the present invention was used to evaluate maternal-placental size exclusion, where a fluorescein sodium salt (FSS) solution was injected into the maternal vascular channel at 0.1 μL/min for 1 hour. […] PI was expected to decrease as a function of compound molecular weight.

For data set [2], the system named is intervillous space - trophoblast barrier. Put plainly: Morphological effects of toxic exposure in the in vitro placenta device. It counts as cell-based. The note with it: injected into the maternal channel at 3 μL/min for 4 min, incubated at 37° C. for 15 min; FIG. 10. The text has this:
In some embodiments, the in vitro placental model device can be used for studying toxicity of test agents to the placenta. Certain compounds not only induce fetal toxicity upon crossing the placental barrier, but also disrupt the barrier itself. The microfluidic placental barrier model can be used to study response to toxic exposure of test agents. The impact to barrier function can be assessed through permeability comparisons and toxicity (e.g., cytotoxicity, etc.) can be assessed off chip by various methods (e.g., cell lysate luminescence assay, genomic analysis, etc.).
For example, an in vitro placenta device was exposed to trypan blue by injection into the maternal channel at 3 μL/min for 4 min and then incubated at 37° C. for 15 min, similar to protocols in literature^7,8. […] White arrows show barrier degradation, and dark arrows show apoptosis following trypan blue exposure.

The test system of another data set is trophoblast channel. Kind of data set: Cytotoxicity by adenylate kinase release (luminescence). The note with it: samples from the trophoblast channel; FIG. 11. In kind it is cell-based. On the procedure:
Following exposure, FSS was injected into the maternal channel and permeability assayed. Permeability in the devices was 10-fold higher in trypan blue treated devices compared to controls. An additional assay was performed to determine cytotoxicity as it relates to the release of adenylate kinase. A positive control (100% death by lysis buffer) and a negative control (media only) were included for comparison. Samples were taken from the trophoblast channel and placed in a low volume, white walled […] plate for luminescence analysis using a plate reader. […] The increase in AK release in arbitrary luminescence units compares the toxic exposure of trypan blue to positive and negative controls.

In the case of `O=C1OC2(c3ccc(O)cc3Oc3cc(O)ccc32)c2ccccc21` [FSS, fluorescein sodium salt], the “increase in average PI compared to 4 kD TRITC-dextran” value in data set [1] is recorded as around 2 fold. For `Cc1cc(-c2ccc(/N=N/c3c(S(=O)(=O)O)cc4cc(S(=O)(=O)O)cc(N)c4c3O)c(C)c2)ccc1/N=N/c1c(S(=O)(=O)O)cc2cc(S(=O)(=O)O)cc(N)c2c1O` [trypan blue], the “morphological effects of exposure” value in data set [2] is “barrier degradation (e.g., cell death and detachment) and apoptosis”. The “increase in adenylate kinase release” value with trophoblast channel was 1.5 fold.
